{"source": "paper PMC5974779", "about": "“Prediction of Drug-Induced Hepatotoxicity Using Long-Term Stable Primary Hepatic 3D Spheroid Cultures in Chemically Defined Conditions” (Toxicological Sciences, 2018)", "key": {"[1]": {"system": "rat, mouse, dog, and cynomolgus monkey", "parameters": "method as in Manning and Swartz, 1995", "conditions": "ref Manning and Swartz, 1995; cited from earlier work"}, "[2]": {"conditions": "ref DrugBank and Prescribers' Digital Reference database; cited from earlier work"}, "[3]": {"system": "primary human hepatocytes (PHH) 3D spheroids"}, "[4]": {"conditions": "therapeutic total cmax; ref PMID; cited from earlier work"}, "patients": {"system": "patients", "conditions": "phase I clinical trial, ref McKenzie et al., 1995, cited from earlier work"}, "clinical DILI in man": {"system": "clinical DILI in man", "conditions": "cited from earlier work"}}, "note": "Like-named read-outs stand apart in the source and are kept apart here."}
{"smiles": "O=c1[nH]c(=O)n([C@@H]2O[C@H](CO)[C@@H](O)[C@@H]2F)cc1I", "note": "[Fialuridine]", "values": [{"measurement": "indications of hepatotoxicity in preclinical species", "setting": "[1]", "result": "did not show indications of hepatotoxicity"}, {"measurement": "Extent of hepatic metabolism", "setting": "[2]", "result": "Minimal"}, {"measurement": "Chemically defined spheroids (this study) 20x", "setting": "[3]", "result": "Positive"}, {"measurement": "hepatotoxicity evaluation in CD-spheroids", "setting": "[3]", "result": "successfully detect fialuridine hepatotoxicity at clinically relevant concentrations"}, {"measurement": "Cmax", "setting": "[4]", "result": 640, "unit": "nM"}, {"measurement": "volunteers with lactic acidosis and acute liver failure", "setting": "patients; few weeks after commencing therapy", "result": "7 out of 15"}, {"measurement": "volunteers who died", "setting": "patients; of the 7 with acute liver failure", "result": 5}, {"measurement": "Suzuki et al. (2010)", "setting": "clinical DILI in man; DILI classification score, ref Suzuki et al. (2010)", "result": 2}, {"measurement": "FDA (Severity)", "setting": "clinical DILI in man; FDA drug labeling DILI concern, ref Chen et al., 2011", "result": "most DILI concern"}, {"measurement": "FDA (0-8)", "setting": "clinical DILI in man; FDA drug labeling DILI score, ref Chen et al., 2011", "result": "Discontinued"}, {"measurement": "DILI in vivo", "setting": "clinical DILI in man; clinical DILI classification in man (POS/NEG)", "result": "POS"}, {"measurement": "Classified as", "setting": "clinical DILI in man; clinical DILI classification used in this study, Supplementary Table 2, ref Chen et al., 2011, Guo et al., 2005, O'Brien et al., 2006, Sakatis et al., 2012, Suzuki et al., 2010, Xu et al., 2008", "result": "POS"}, {"measurement": "DILI in vivo", "setting": "clinical DILI in man; clinical DILI classification, Supplementary Table 1, ref Chen et al., 2011, Guo et al., 2005, O'Brien et al., 2006, Sakatis et al., 2012, Suzuki et al., 2010, Xu et al., 2008", "result": "POS"}, {"measurement": "O'Brien et al. (2003)", "setting": "clinical DILI in man; clinical hepatotoxicity classification, ref O'Brien et al. (2003)", "result": "Severely"}, {"measurement": "Type of DILI", "setting": "clinical DILI in man; reported pattern of liver damage, Supplementary Table 2, ref literature", "result": "Hepatocellular injury, Cholestatic injury or Mixed hepatitis"}]}
